# US5126336A, “Antibiotic C-3 catechol-substituted cephalosporin compounds, compositions and method of use thereof” (Bristol-Myers Squibb Company, priority 1990, dated 1992)
# What was measured:
# Type in all cases: cell-based
# B. subtilis PCI 219 = test: MIC, agar dilution; conditions: Bacillus subtilis, PCI219, Mueller-Hinton agar pH 7.2, 32° C., 18 hr, 10^6 cells/ml
# Protocol: (§1) Minimum inhibitory concentrations (MICs) of the present series of cephalosporins were determined against 32 strains of test organisms by two-fold serial agar dilution method in Mueller-Hinton agar. Geometric means of MICs were calculated against six groups of the test organisms which are classified as follows and summarized in Table 1.
# (§2) Medium; MuellerHinton agar (pH = 7.2)
# (§3) Incubation temperature: 32° C., 18 hr
# (§4) Inoculum size; 10^6 cells/ml
# C. freundii GN 7391 = test: MIC, agar dilution; conditions: Citrobacter freundii, GN7391, Mueller-Hinton agar pH 7.2, 32° C., 18 hr, 10^6 cells/ml
# Protocol: as §1, §2, §3, §4
# C. terrigena IFO 12685 = test: MIC, agar dilution; conditions: Mueller-Hinton agar pH 7.2, 32° C., 18 hr, 10^6 cells/ml
# Protocol: as §1, §2, §3, §4
# E. cloacae IPM-12 = test: MIC, agar dilution; conditions: Enterobacter cloacae, IPM12, Mueller-Hinton agar pH 7.2, 32° C., 18 hr, 10^6 cells/ml
# Protocol: as §1, §2, §3, §4
# E. coli 255 = test: MIC, agar dilution; conditions: Escherichia coli, Mueller-Hinton agar pH 7.2, 32° C., 18 hr, 10^6 cells/ml
# Protocol: as §1, §2, §3, §4
# E. faecalis A9808 = test: MIC, agar dilution; conditions: Enterococcus faecalis, Mueller-Hinton agar pH 7.2, 32° C., 18 hr, 10^6 cells/ml
# Protocol: as §1, §2, §3, §4
# E. faecium A24817 = test: MIC, agar dilution; conditions: Enterococcus faecium, Mueller-Hinton agar pH 7.2, 32° C., 18 hr, 10^6 cells/ml
# Protocol: as §1, §2, §3, §4
# K. pneumoniae PCI 602 = test: MIC, agar dilution; conditions: Klebsiella pneumoniae, PCI602, Mueller-Hinton agar pH 7.2, 32° C., 18 hr, 10^6 cells/ml
# Protocol: as §1, §2, §3, §4
# M. luteus 1001 = test: MIC, agar dilution; conditions: Micrococcus luteus, Mueller-Hinton agar pH 7.2, 32° C., 18 hr, 10^6 cells/ml
# Protocol: as §1, §2, §3, §4
# M. morgani 1510/9 = test: MIC, agar dilution; conditions: Mueller-Hinton agar pH 7.2, 32° C., 18 hr, 10^6 cells/ml
# Protocol: as §1, §2, §3, §4
# M. morgani 1510 = test: MIC, agar dilution; conditions: Mueller-Hinton agar pH 7.2, 32° C., 18 hr, 10^6 cells/ml
# Protocol: as §1, §2, §3, §4
# P. aeruginosa A20599 = test: MIC, agar dilution; conditions: Pseudomonas aeruginosa, Mueller-Hinton agar pH 7.2, 32° C., 18 hr, 10^6 cells/ml
# Protocol: as §1, §2, §3, §4
# P. aeruginosa IPM-8 = test: MIC, agar dilution; conditions: Pseudomonas aeruginosa, IPM8, Mueller-Hinton agar pH 7.2, 32° C., 18 hr, 10^6 cells/ml
# Protocol: as §1, §2, §3, §4
# P. aeruginosa IPM-9 = test: MIC, agar dilution; conditions: Pseudomonas aeruginosa, IPM9, Mueller-Hinton agar pH 7.2, 32° C., 18 hr, 10^6 cells/ml
# Protocol: as §1, §2, §3, §4
# P. aeruginosa KKA 19 = test: MIC, agar dilution; conditions: Pseudomonas aeruginosa, KKA19, Mueller-Hinton agar pH 7.2, 32° C., 18 hr, 10^6 cells/ml
# Protocol: as §1, §2, §3, §4
# P. cepacia A21213 = test: MIC, agar dilution; conditions: Burkholderia cepacia, Mueller-Hinton agar pH 7.2, 32° C., 18 hr, 10^6 cells/ml
# Protocol: as §1, §2, §3, §4
# P. cepacia No. 651 = test: MIC, agar dilution; conditions: Burkholderia cepacia, Mueller-Hinton agar pH 7.2, 32° C., 18 hr, 10^6 cells/ml
# Protocol: as §1, §2, §3, §4
# P. mirabilis IFO-2849 = test: MIC, agar dilution; conditions: Proteus mirabilis, IFO2849, Mueller-Hinton agar pH 7.2, 32° C., 18 hr, 10^6 cells/ml
# Protocol: as §1, §2, §3, §4
# P. rettgeri IPM-14 = test: MIC, agar dilution; conditions: Providencia rettgeri, IPM14, Mueller-Hinton agar pH 7.2, 32° C., 18 hr, 10^6 cells/ml
# Protocol: as §1, §2, §3, §4
# P. vulgaris IPM-13 = test: MIC, agar dilution; conditions: Proteus vulgaris, IPM13, Mueller-Hinton agar pH 7.2, 32° C., 18 hr, 10^6 cells/ml
# Protocol: as §1, §2, §3, §4
# S. aureus 209P = test: MIC, agar dilution; conditions: Staphylococcus aureus; S. aureus 209P; Mueller-Hinton agar pH 7.2; 32° C., 18 hr; 10^6 cells/ml; read-out: MIC
# Protocol: as §1, §2, §3, §4
# S. aureus 4-1015 (MRSA) = test: MIC, agar dilution; conditions: Staphylococcus aureus, Mueller-Hinton agar pH 7.2, 32° C., 18 hr, 10^6 cells/ml
# Protocol: as §1, §2, §3, §4
# S. aureus IPM-24 (MRSA) = test: MIC, agar dilution; conditions: Staphylococcus aureus, Mueller-Hinton agar pH 7.2, 32° C., 18 hr, 10^6 cells/ml
# Protocol: as §1, §2, §3, §4
# S. epidermidis 11-1230 = test: MIC, agar dilution; conditions: Staphylococcus epidermidis, 111230, Mueller-Hinton agar pH 7.2, 32° C., 18 hr, 10^6 cells/ml
# Protocol: as §1, §2, §3, §4
# S. marcescens IPM-15 = test: MIC, agar dilution; conditions: Serratia marcescens, IPM15, Mueller-Hinton agar pH 7.2, 32° C., 18 hr, 10^6 cells/ml
# Protocol: as §1, §2, §3, §4
# S. marcescens IPM-16 = test: MIC, agar dilution; conditions: Serratia marcescens, IPM16, Mueller-Hinton agar pH 7.2, 32° C., 18 hr, 10^6 cells/ml
# Protocol: as §1, §2, §3, §4
# X. maltophilia GN 12873 = test: MIC, agar dilution; conditions: Stenotrophomonas maltophilia, GN12873, Mueller-Hinton agar pH 7.2, 32° C., 18 hr, 10^6 cells/ml
# Protocol: as §1, §2, §3, §4
# X. maltophilia No. 661 = test: MIC, agar dilution; conditions: Stenotrophomonas maltophilia, Mueller-Hinton agar pH 7.2, 32° C., 18 hr, 10^6 cells/ml
# Protocol: as §1, §2, §3, §4
# E. coli Juhl A15119 = test: MIC, agar dilution; conditions: Escherichia coli, JUHLA15119; E. coli Juhl A15119; Mueller-Hinton agar pH 7.2; 32° C., 18 hr; 10^6 cells/ml; read-out: MIC
# Protocol: as §1
# (§5) In vivo antibacterial activity was determined against three bacterial infections (S. aureus Smith, E. coli Juhl and P. aeruginosa A9843A) by intramuscular administration to mice just after the bacterial challenge. PD50 values are summarized in Table 3 in comparsion with the MIC values against the corresponding organisms.
# as §2, §3, §4
# P. aeruginosa A9843A = test: MIC, agar dilution; conditions: Pseudomonas aeruginosa, A9843A, 18 h, pH 7.2
# Protocol: as §1, §5, §2, §3, §4
# S. aureus Smith = test: MIC, agar dilution; conditions: Staphylococcus aureus, 18 h, pH 7.2
# Protocol: as §1, §5, §2, §3, §4
# [1] = test system: Gp-Ia: Penicillin(PC)-sensitive S. aureus (5 strains); test: MIC, two-fold serial agar dilution, Gp-Ia; conditions: Staphylococcus aureus, Mueller-Hinton agar, read-out: Geometric mean of MIC
# Protocol: as §1
# Gp-Ia Penicillin(PC)-sensitive S. aureus (5 strains).
# [2] = test system: Gp-Ib: Penicillin(PC)-resistant S. aureus (5); test: MIC, two-fold serial agar dilution, Gp-Ib; conditions: Staphylococcus aureus, 5 strains, Mueller-Hinton agar, read-out: Geometric mean of MIC
# Protocol: as §1
# Gp-Ib Penicillin(PC)-resistant S. aureus (5).
# [3] = test system: Gn-Ia: Cephalothin(CET)-sensitive E. coli (2), Kl. pneumoniae (1) and Pr. mirabilis (2); test: MIC, two-fold serial agar dilution, Gn-Ia; conditions: 5 strains, Mueller-Hinton agar, read-out: Geometric mean of MIC
# Protocol: as §1
# Gn-Ia Cephalothin(CET)-sensitive E. coli (2), Kl.
# pneumoniae (1) and Pr. mirabilis (2).
# [4] = test system: Gn-Ib: Cephalothin(CET)-resistant E. coli (3) and Kl. pneumoniae (2); test: MIC, two-fold serial agar dilution, Gn-Ib; conditions: Escherichia coli, read-out: Geometric mean of MIC, Gn-Ib, 5 strains; Mueller-Hinton agar
# Protocol: as §1
# Gn-Ib Cephalothin(CET)-resistant E. coli (3) and Kl.
# [5] = test system: Gn-II: M.morganii (1), Ent. cloacae (2) and Ser. marcescens (2); test: MIC, two-fold serial agar dilution, Gn-II; conditions: Gn-II, 5 strains; Mueller-Hinton agar; read-out: Geometric mean of MIC
# Protocol: as §1
# Gn-II M.morganii (1), Ent. cloacae (2) and Ser.
# [6] = test system: Gn-III: Ps. aeruginosa (7); test: MIC, two-fold serial agar dilution, Gn-III; conditions: Pseudomonas aeruginosa, Gn-III, 7 strains; Mueller-Hinton agar; read-out: Geometric mean of MIC
# Protocol: as §1
# Gn-III Ps. aeruginosa (7).
compound,measurement,setting,value
"C[n+]1cn(C/C=C/C2=C(C(=O)[O-])N3C(=O)C(NC(=O)/C(=N\OC(C)(C)C(=O)O)c4csc(N)n4)C3SC2)c2cc(O)c(O)cc21 (stereo not shown) [Ip, 7-[(Z)-2-(2-Aminothiazol-4-yl)-2-(1-methyl-1-carboxyethoxy-imino)acetamido]-3-[(E)-3-(5,6-dihydroxy-3-methylbenzimi-dazol-3-io-1-yl)-1-propen-1-yl]-3-cephem-4-carboxylate]",MIC,B. subtilis PCI 219,12.5 µg/mL
same,MIC,C. freundii GN 7391,12.5 µg/mL
same,MIC,C. terrigena IFO 12685,1.6 µg/mL
same,MIC,E. cloacae IPM-12,3.1 µg/mL
same,MIC,E. coli 255,0.05 µg/mL
same,MIC,E. faecalis A9808,> 100 µg/mL
same,MIC,E. faecium A24817,> 100 µg/mL
same,MIC,K. pneumoniae PCI 602,0.013 µg/mL
same,MIC,M. luteus 1001,3.1 µg/mL
same,MIC,M. morgani 1510/9,0.1 µg/mL
same,MIC,M. morgani 1510,1.6 µg/mL
same,MIC,P. aeruginosa A20599,0.2 µg/mL
same,MIC,P. aeruginosa IPM-8,0.1 µg/mL
same,MIC,P. aeruginosa IPM-9,12.5 µg/mL
same,MIC,P. aeruginosa KKA 19,0.2 µg/mL
same,MIC,P. cepacia A21213,1.6 µg/mL
same,MIC,P. cepacia No. 651,3.1 µg/mL
same,MIC,P. mirabilis IFO-2849,0.05 µg/mL
same,MIC,P. rettgeri IPM-14,0.2 µg/mL
same,MIC,P. vulgaris IPM-13,12.5 µg/mL
same,MIC,S. aureus 209P,25 µg/mL
same,MIC,S. aureus 4-1015 (MRSA),> 100 µg/mL
same,MIC,S. aureus IPM-24 (MRSA),> 100 µg/mL
same,MIC,S. epidermidis 11-1230,25 µg/mL
same,MIC,S. marcescens IPM-15,> 100 µg/mL
same,MIC,S. marcescens IPM-16,3.1 µg/mL
same,MIC,X. maltophilia GN 12873,1.6 µg/mL
same,MIC,X. maltophilia No. 661,0.8 µg/mL
same,MIC,E. coli Juhl A15119,0.2 µg/mL
same,MIC,P. aeruginosa A9843A,0.1 µg/mL
same,MIC,S. aureus Smith,100 µg/mL
"C[N+]1(C/C=C/C2=C(C(=O)[O-])N3C(=O)C(NC(=O)/C(=N\OCC(=O)O)c4csc(N)n4)C3SC2)Cc2cc(O)c(O)cc2C1 (stereo not shown) [Ih, 7-[(Z)-2-(2-Aminothiazol-4-yl)-2-carboxymethoxyimino-acetamido]-3-[3-(E)-(5,6-hydroxy-2-methyl-2-isoindolinio)-1-propen-1-yl]-3-cephem-4-carboxylate]",MIC,[1],7.2 µg/mL
same,MIC,[2],12.5 µg/mL
same,MIC,[3],0.2 µg/mL
same,MIC,[4],0.4 µg/mL
same,MIC,[5],1.1 µg/mL
same,MIC,[6],0.49 µg/mL
